Source: ChEMBL document CHEMBL4811281, “Identification of aryl sulfonamides as novel and potent inhibitors of NaV1.5” (Bioorg Med Chem Lett, 2021)
Active and inactive are the calls of the source. The calls are words filed in the database; no cut-off is given here.

How the values were obtained:
[1] = biological target: T1, Sodium channel protein type 1 subunit alpha (Homo sapiens, UniProt P35498); assay: Inhibition of human Nav1.1 expressed in HEK293 cells by sodium influx assay; assay type: cell-based
[2] = biological target: T1, Sodium channel protein type 1 subunit alpha; assay: Inhibition of human Nav1.1 by V1/2 protocol based analysis
[3] = AUC in FVB mouse at 10 mg/kg, po; assay type: ADME, organism-based; set-up: dose 10 mg/kg; conditions: in vivo
Cytochrome P450 3A4 = Cytochrome P450 3A4 (Homo sapiens, UniProt P08684); assay: Inhibition of CYP3A4 (unknown origin); assay type: ADME
[4] = biological target: T2, Sodium channel protein type 2 subunit alpha (Homo sapiens, UniProt Q99250); assay: Inhibition of human Nav1.2 by whole cell voltage clamp analysis
[5] = biological target: T3, Sodium channel protein type 5 subunit alpha (Homo sapiens, UniProt Q14524); assay: Displacement of [3H]BNZA from Nav1.5 (unknown origin)
[6] = Anti-arrythmic activity in human iPSC-derived cardiomyocytes assessed as reduction in upstroke velocity dV/dt(Vmax) at 100 nM in presence of 15 to 30 nM ATX-II by current clamp analysis; assay type: functional; conditions: iPSC-CM
[7] = Half life in FVB mouse at 1 mg/kg, iv; assay type: ADME, organism-based; conditions: in vivo
[8] = biological target: T3, Sodium channel protein type 5 subunit alpha; assay: Inhibition of human Nav1.5 expressed in HEK293 cells by sodium influx assay; assay type: cell-based
[9] = Cmax in FVB mouse at 10 mg/kg, po; assay type: ADME, organism-based; set-up: route oral, dose 10 mg/kg; conditions: in vivo
Cytochrome P450 2C9 = Cytochrome P450 2C9 (Homo sapiens, UniProt P11712); assay: Inhibition of CYP2C9 (unknown origin); assay type: ADME
[10] = AUC in FVB mouse at 1 mg/kg, iv; assay type: ADME, organism-based; set-up: dose 1 mg/kg; conditions: in vivo
[11] = biological target: Kv channel-interacting protein 2/Potassium voltage-gated channel subfamily D member 3 (Homo sapiens, UniProt Q9UK17+Q9NS61); assay: Inhibition of Kv4.3/KChIP2.2 (unknown origin) by voltage clamp method; assay type: protein-complex assay
[12] = biological target: Sodium channel protein type 9 subunit alpha (Homo sapiens, UniProt Q15858); assay: Inhibition of human Nav1.7 expressed in HEK293 cells by sodium flux analysis; assay type: cell-based
Cytochrome P450 2D6 = Cytochrome P450 2D6 (Homo sapiens, UniProt P10635); assay: Inhibition of CYP2D6 (unknown origin); assay type: ADME
[13] = Volume of distribution at steady state in FVB mouse at 1 mg/kg, iv; assay type: ADME, organism-based; conditions: in vivo, read-out: Vdss
[14] = biological target: T3, Sodium channel protein type 5 subunit alpha; assay: Inhibition of human Nav1.5 expressed in HEK293 cells assessed as inhibition of late channel current at holding potential of -95 mV; assay type: cell-based
Nav1.5 (SCN5A) = Nav1.5 (SCN5A) (Homo sapiens, UniProt Q14524); assay: State dependent inhibition of human Nav1.5 expressed in HEK293 cells assessed as shift in compound IC50 at rested state at membrane potential of -120 mV relative to partially inactivated state at membrane potential of -95 mV; assay type: cell-based; conditions: HEK293 cells that express human Nav1.5, read-out: FC
[15] = biological target: Voltage-gated potassium channel, IKs; KCNQ1(Kv7.1)/KCNE1(MinK) (Homo sapiens, UniProt P51787+P15382); assay: Inhibition of KvLQT1/mink (unknown origin) by voltage clamp method; assay type: protein-complex assay
[16] = biological target: T2, Sodium channel protein type 2 subunit alpha; assay: Inhibition of human Nav1.2 expressed in HEK293 cells by sodium influx assay; assay type: cell-based
Cytochrome P450 1A2 = Cytochrome P450 1A2 (Homo sapiens, UniProt P05177); assay: Inhibition of CYP1A2 (unknown origin); assay type: ADME
[17] = biological target: T4, Sodium channel protein type 8 subunit alpha (Homo sapiens, UniProt Q9UQD0); assay: Inhibition of human Nav1.6 expressed in HEK293 cells by sodium influx assay; assay type: cell-based
[18] = Half life in FVB mouse at 10 mg/kg, po; assay type: ADME, organism-based; conditions: in vivo
[19] = biological target: T4, Sodium channel protein type 8 subunit alpha; assay: Inhibition of human Nav1.6 by V1/2 protocol based analysis
[20] = biological target: T1, Sodium channel protein type 1 subunit alpha; assay: Inhibition of human Nav1.1 by whole cell voltage clamp analysis
hERG (KCNH2) = hERG (KCNH2) (Homo sapiens, UniProt Q12809); assay: Inhibition of human ERG at 10 uM by voltage clamp method
[21] = biological target: T4, Sodium channel protein type 8 subunit alpha; assay: Inhibition of human Nav1.6 by whole cell voltage clamp analysis
[22] = biological target: T3, Sodium channel protein type 5 subunit alpha; assay: Inhibition of human Nav1.5 by V1/2 protocol based analysis
[23] = Drug uptake in FVB mouse brain at 10 mg/kg, po measured after 2 hrs; assay type: ADME, organism-based; conditions: read-out: Drug uptake
[24] = biological target: T3, Sodium channel protein type 5 subunit alpha; assay: Inhibition of human Nav1.5 expressed in HEK293 cells assessed as inhibition of peak channel current at holding potential of -95 mV; assay type: cell-based
[25] = biological target: T3, Sodium channel protein type 5 subunit alpha; assay: Inhibition of human Nav1.5 by automated voltage clamp electrophysiology
[26] = Oral bioavailability in FVB mouse at 10 mg/kg; assay type: ADME, organism-based; conditions: in vivo
[27] = biological target: T2, Sodium channel protein type 2 subunit alpha; assay: Inhibition of human Nav1.2 by V1/2 protocol based analysis
[28] = biological target: Voltage-dependent L-type calcium channel subunit alpha-1C (Homo sapiens, UniProt Q13936); assay: Inhibition of Cav1.2 (unknown origin) by voltage clamp assay
[29] = Anti-arrythmic activity in human iPSC-derived cardiomyocytes assessed as shortening of ATX-II induced APD90 prolongation at 100 nM in presence of 15 to 30 nM ATX-II by current clamp analysis; assay type: functional; conditions: iPSC-CM
[30] = Ratio of drug level in brain to plasma in FVB mouse at 10 mg/kg, po measured after 2 hrs; assay type: ADME, organism-based; conditions: read-out: BPR
[31] = Plasma concentration in FVB mouse at 10 mg/kg, po measured after 2 hrs; assay type: ADME, organism-based
[32] = Clearance in FVB mouse at 1 mg/kg, iv; assay type: ADME, organism-based; conditions: in vivo
Cytochrome P450 2C19 = Cytochrome P450 2C19 (Homo sapiens, UniProt P33261); assay: Inhibition of CYP2C19 (unknown origin); assay type: ADME
[33] = Intrinsic clearance in human liver microsomes; assay type: ADME, Microsome; conditions: read-out: CLH
[34] = Inhibition of human Nav1.5 VSD4 R1631A mutant by automated voltage clamp electrophysiology
[35] = Inhibition of human Nav1.5 VSD4 R1622A mutant by automated voltage clamp electrophysiology
[36] = Inhibition of human Nav1.5 VSD4 R1634A mutant by automated voltage clamp electrophysiology
[37] = Inhibition of human Nav1.5 VSD4 R1628A mutant by automated voltage clamp electrophysiology
[38] = Inhibition of human Nav1.5 VSD4 R1625A mutant by automated voltage clamp electrophysiology
[39] = Intrinsic clearance in mouse liver microsomes; assay type: ADME, Microsome; conditions: read-out: CLH
[40] = biological target: Sodium channel protein type 5 subunit alpha (Homo sapiens, UniProt Q14524, R814A); assay: Inhibition of human Nav1.5 VSD2 R814A mutant by automated voltage clamp electrophysiology
[41] = biological target: Voltage-dependent T-type calcium channel subunit alpha-1I (Homo sapiens) (UniProt Q9P0X4); assay: Inhibition of Cav3.3 (unknown origin) by voltage clamp assay
[42] = biological target: Voltage-dependent N-type calcium channel subunit alpha-1B (Homo sapiens) (UniProt Q00975); assay: Inhibition of Cav2.2 (unknown origin) by voltage clamp assay
Homo sapiens [43] = organism: Homo sapiens; assay: Selectivity ratio of IC50 for human Nav1.2 to IC50 for human Nav1.5
[44] = biological target: Potassium/sodium hyperpolarization-activated cyclic nucleotide-gated channel 2 (Homo sapiens) (UniProt Q9UL51); assay: Inhibition of HCN2 (unknown origin) by voltage clamp method
Homo sapiens [45] = organism: Homo sapiens; assay: Selectivity ratio of IC50 for human Nav1.6 to IC50 for human Nav1.5
[46] = biological target: Potassium voltage-gated channel subfamily A member 5 (Homo sapiens) (UniProt P22460); assay: Inhibition of Kv1.5 (unknown origin) by voltage clamp method
Homo sapiens [47] = organism: Homo sapiens; assay: Inhibition of GABA channel (unknown origin) by voltage clamp assay
[48] = biological target: Voltage-dependent T-type calcium channel subunit alpha-1G (Homo sapiens) (UniProt O43497); assay: Inhibition of Cav3.1 (unknown origin) by voltage clamp assay
[49] = biological target: 5-hydroxytryptamine receptor 3A (Homo sapiens) (UniProt P46098); assay: Inhibition of 5HT3A channel (unknown origin) by voltage clamp assay
[50] = biological target: Voltage-gated potassium channel KCNC2 (Homo sapiens) (UniProt Q96PR1); assay: Inhibition of Kv3.2 (unknown origin) by voltage clamp method
Homo sapiens [51] = organism: Homo sapiens; assay: Selectivity ratio of IC50 for human Nav1.1 to IC50 for human Nav1.5
Homo sapiens [52] = organism: Homo sapiens; assay: Inhibition of Kv4.2/KChIP2.2 (unknown origin) by voltage clamp method
iPSC-CM [53] = assay: Anti-arrythmic activity in human iPSC-derived cardiomyocytes assessed as maximum diastolic membrane potential at 100 nM in presence of 15 to 30 nM ATX-II by current clamp analysis; assay type: functional, cell-based
[54] = biological target: Potassium/sodium hyperpolarization-activated cyclic nucleotide-gated channel 4 (Homo sapiens) (UniProt Q9Y3Q4); assay: Inhibition of HCN4 (unknown origin) by voltage clamp method
Homo sapiens [55] = organism: Homo sapiens; assay: Selectivity ratio of IC50 for inhibition of human Nav1.5 expressed in HEK293 cells assessed as inhibition of peak current to IC50 for inhibition of human Nav1.5 expressed in HEK293 cells assessed as inhibition of late current; assay type: cell-based
iPSC-CM [56] = assay: Anti-arrythmic activity in human iPSC-derived cardiomyocytes assessed as AP amplitude at 100 nM in presence of 15 to 30 nM ATX-II by current clamp analysis; assay type: functional, cell-based
[57] = biological target: Potassium voltage-gated channel subfamily B member 1 (Homo sapiens) (UniProt Q14721); assay: Inhibition of Kv2.1 (unknown origin) by voltage clamp method
[58] = biological target: Transient receptor potential cation channel subfamily V member 1 (Homo sapiens) (UniProt Q8NER1); assay: Inhibition of TRPV1 (unknown origin) by voltage clamp assay

T3 sequence (Q14524 whole entry): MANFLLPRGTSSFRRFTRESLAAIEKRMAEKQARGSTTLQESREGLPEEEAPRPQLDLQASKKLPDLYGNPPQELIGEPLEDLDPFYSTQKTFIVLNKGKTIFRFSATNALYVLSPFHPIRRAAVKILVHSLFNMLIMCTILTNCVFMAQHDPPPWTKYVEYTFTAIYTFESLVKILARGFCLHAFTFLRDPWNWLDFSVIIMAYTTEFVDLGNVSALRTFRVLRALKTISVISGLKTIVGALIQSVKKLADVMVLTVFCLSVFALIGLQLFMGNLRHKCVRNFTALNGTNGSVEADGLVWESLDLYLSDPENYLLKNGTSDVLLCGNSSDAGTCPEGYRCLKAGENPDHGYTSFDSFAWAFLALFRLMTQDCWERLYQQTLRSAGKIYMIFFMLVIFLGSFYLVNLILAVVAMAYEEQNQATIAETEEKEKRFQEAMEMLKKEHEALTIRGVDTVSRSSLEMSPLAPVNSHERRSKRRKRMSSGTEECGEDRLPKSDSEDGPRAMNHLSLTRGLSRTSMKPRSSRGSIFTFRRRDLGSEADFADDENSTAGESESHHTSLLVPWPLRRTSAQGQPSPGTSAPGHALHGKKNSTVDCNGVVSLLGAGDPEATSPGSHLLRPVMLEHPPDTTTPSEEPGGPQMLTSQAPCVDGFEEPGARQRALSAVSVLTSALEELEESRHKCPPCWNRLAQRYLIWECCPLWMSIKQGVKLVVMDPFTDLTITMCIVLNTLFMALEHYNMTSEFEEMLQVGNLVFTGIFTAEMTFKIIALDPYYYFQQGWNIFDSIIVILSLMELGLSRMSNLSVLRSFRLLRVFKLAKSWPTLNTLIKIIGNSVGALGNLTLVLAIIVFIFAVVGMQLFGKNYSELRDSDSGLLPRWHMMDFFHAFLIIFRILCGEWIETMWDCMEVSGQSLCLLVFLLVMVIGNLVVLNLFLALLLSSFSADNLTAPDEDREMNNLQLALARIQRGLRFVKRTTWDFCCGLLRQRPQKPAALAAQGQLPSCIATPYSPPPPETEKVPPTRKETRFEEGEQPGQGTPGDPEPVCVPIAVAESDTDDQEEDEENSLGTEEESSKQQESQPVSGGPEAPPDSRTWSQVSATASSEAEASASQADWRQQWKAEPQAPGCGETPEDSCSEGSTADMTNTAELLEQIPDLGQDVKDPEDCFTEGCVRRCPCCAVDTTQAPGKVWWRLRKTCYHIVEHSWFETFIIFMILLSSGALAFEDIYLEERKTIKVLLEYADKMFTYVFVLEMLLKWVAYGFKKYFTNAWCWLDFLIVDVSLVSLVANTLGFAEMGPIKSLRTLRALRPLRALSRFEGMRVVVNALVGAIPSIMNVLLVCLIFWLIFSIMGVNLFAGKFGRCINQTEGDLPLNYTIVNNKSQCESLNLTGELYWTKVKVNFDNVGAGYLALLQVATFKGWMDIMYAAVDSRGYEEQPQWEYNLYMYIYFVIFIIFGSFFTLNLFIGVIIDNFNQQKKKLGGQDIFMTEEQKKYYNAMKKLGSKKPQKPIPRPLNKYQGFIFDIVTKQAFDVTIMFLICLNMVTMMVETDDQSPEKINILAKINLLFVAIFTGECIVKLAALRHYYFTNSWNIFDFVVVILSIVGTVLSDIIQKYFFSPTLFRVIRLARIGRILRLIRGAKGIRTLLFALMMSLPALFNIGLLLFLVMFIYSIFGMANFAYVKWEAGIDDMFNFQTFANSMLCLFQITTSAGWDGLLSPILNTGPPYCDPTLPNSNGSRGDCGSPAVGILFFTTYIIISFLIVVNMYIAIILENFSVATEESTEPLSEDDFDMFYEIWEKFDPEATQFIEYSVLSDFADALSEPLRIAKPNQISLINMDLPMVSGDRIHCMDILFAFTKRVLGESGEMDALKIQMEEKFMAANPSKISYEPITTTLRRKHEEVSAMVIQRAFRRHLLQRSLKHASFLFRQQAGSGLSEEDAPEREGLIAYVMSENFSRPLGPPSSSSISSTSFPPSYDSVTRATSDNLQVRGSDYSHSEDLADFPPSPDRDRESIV
T4 sequence (Q9UQD0 whole entry): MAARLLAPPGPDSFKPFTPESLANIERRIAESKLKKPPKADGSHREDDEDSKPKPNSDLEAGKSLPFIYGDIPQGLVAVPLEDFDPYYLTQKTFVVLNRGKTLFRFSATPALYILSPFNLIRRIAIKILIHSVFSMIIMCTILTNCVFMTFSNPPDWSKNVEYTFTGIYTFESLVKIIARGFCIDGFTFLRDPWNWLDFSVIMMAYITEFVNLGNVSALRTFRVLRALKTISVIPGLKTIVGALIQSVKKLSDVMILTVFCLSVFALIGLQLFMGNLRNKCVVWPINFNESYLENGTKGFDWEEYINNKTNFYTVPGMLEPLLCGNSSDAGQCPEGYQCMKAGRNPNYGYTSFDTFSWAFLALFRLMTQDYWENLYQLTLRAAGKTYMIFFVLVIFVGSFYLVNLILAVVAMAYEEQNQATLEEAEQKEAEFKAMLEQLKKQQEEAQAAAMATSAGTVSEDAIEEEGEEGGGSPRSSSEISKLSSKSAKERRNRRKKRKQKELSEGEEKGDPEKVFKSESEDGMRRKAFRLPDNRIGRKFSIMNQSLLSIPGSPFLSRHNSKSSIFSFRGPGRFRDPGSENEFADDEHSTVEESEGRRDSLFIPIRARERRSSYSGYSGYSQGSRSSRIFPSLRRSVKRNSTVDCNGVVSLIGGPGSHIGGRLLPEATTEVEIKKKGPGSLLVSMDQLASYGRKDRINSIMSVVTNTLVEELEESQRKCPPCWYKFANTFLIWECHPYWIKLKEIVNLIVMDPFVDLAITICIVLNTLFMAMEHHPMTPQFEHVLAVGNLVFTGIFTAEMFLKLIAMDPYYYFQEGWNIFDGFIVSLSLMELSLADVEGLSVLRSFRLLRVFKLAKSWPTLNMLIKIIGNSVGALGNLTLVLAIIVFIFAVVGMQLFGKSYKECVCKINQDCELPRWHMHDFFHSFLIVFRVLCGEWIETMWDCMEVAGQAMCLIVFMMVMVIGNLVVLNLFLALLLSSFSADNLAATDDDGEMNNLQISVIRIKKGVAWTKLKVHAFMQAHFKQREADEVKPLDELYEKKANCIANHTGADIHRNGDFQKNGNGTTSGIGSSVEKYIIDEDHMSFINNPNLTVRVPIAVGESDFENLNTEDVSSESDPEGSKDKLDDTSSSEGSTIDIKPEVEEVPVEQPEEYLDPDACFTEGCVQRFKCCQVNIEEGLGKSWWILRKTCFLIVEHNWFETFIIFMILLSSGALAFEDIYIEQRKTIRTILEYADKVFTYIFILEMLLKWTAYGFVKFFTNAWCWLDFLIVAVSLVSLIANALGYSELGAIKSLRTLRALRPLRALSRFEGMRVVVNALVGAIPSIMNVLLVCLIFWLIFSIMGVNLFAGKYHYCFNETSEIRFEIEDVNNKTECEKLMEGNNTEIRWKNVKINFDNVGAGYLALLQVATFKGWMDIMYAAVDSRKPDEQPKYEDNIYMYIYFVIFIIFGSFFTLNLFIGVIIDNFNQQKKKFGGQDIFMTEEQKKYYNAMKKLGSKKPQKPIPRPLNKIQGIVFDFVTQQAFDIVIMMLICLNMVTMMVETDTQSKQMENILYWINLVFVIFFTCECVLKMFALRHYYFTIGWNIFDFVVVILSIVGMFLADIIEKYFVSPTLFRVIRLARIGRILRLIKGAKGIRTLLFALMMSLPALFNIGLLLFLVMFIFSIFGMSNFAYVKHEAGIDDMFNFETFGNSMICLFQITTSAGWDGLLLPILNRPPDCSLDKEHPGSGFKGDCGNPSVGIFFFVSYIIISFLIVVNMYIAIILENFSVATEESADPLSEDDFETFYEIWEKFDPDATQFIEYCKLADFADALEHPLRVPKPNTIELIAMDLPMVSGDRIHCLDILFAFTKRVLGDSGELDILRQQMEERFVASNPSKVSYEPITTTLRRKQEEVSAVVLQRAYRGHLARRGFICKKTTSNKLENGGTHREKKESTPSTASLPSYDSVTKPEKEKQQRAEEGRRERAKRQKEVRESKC
Cytochrome P450 2C9, sequence (P11712 whole entry): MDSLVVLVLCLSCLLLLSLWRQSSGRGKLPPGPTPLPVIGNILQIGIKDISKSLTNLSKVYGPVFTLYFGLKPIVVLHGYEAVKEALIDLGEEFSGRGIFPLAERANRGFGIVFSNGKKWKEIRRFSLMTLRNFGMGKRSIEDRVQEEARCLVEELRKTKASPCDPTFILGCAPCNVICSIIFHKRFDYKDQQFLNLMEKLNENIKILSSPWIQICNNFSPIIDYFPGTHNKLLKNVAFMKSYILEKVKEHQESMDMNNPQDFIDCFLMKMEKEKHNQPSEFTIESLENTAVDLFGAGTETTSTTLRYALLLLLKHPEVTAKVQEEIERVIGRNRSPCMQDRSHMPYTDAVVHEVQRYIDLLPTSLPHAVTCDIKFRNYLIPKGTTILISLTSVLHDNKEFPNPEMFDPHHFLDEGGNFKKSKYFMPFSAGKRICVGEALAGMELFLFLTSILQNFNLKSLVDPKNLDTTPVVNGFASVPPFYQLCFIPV
5-hydroxytryptamine receptor 3A (Homo sapiens), sequence (P46098 whole entry): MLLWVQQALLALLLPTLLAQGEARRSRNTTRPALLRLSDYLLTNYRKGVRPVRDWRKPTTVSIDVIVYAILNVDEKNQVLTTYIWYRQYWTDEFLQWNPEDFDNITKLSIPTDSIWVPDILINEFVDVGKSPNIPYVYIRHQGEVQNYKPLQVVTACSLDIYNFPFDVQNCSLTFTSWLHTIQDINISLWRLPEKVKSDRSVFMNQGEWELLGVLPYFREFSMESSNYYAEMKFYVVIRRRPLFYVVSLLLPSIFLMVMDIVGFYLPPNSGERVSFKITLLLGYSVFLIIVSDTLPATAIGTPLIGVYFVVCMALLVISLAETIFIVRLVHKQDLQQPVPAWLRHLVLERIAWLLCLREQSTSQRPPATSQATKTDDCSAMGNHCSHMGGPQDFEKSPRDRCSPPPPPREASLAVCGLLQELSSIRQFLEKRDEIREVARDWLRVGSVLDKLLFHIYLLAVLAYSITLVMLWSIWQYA

O=S(=O)(Nc1cccc(F)n1)c1cc(F)c(O[C@H]2CCN(CC(F)(F)F)C[C@@H]2c2ccc(F)c(F)c2)c(F)c1 (stereo in doubt; (-)-6) [listing 1 of 2 here]
IC50 [1]: 560 nM | IC50 [2]: 90 nM | AUC [3]: 30 µM·h | inhibition (INH) (Cytochrome P450 3A4): Not Active | IC50 [4]: 270 nM | Ki [5]: 370 nM | inhibition at 0.1 µM [6]: 23% | half-life [7]: 2.6 h | IC50 [8]: 44 nM | Cmax [9]: 3.6 µM | IC50 (Cytochrome P450 2C9): 2200 nM | AUC [10]: 7.6 µM·h | inhibition (INH) [11]: Not Active | IC50 [12]: 220 nM | inhibition (INH) (Cytochrome P450 2D6): Not Active | Vd [13]: 0.8 L/kg | IC50 [14]: 15.8 nM | selectivity ratio (Nav1.5 (SCN5A)): 24 | inhibition (INH) [15]: Not Active | IC50 [16]: 270 nM | inhibition (INH) (Cytochrome P450 1A2): Not Active | IC50 [17]: 110 nM | half-life [18]: 2.7 h | IC50 [19]: 110 nM | IC50 [20]: 620 nM | inhibition at 10 µM (hERG (KCNH2)): 5% | IC50 [21]: 230 nM | IC50 [22]: 110 nM | concentration at 2 h [23]: 2.03 µM | IC50 [24]: 17.7 nM | IC50 [25]: 39 nM | bioavailability [26]: 39% | IC50 [27]: 12 nM | inhibition (INH) [28]: Not Active | inhibition at 0.1 µM [29]: 84% | Kp at 2 h [30]: 0.32 | concentration at 2 h [31]: 6.44 µM | clearance [32]: 3.8 mL/min/kg | inhibition (INH) (Cytochrome P450 2C19): Not Active

O=S(=O)(Nc1cccc(F)n1)c1cc(F)c(O[C@H]2CCN(CC(F)(F)F)C[C@@H]2c2ccccc2)cc1F (racemic)
CLint scaled [33]: 16 mL/min/kg | IC50 [34]: 570 nM | IC50 [35]: 1290 nM | IC50 [36]: 1210 nM | IC50 [37]: 820 nM | IC50 [38]: 810 nM | IC50 [25]: 700 nM | CLint scaled [39]: 70 mL/min/kg | IC50 [40]: 410 nM

O=S(=O)(Nc1cccc(F)n1)c1cc(F)c(O[C@H]2CCN(CC(F)(F)F)C[C@@H]2c2ccc(F)c(F)c2)c(F)c1 (stereo in doubt; (-)-6) [listing 2 of 2 here]
inhibition [41]: inactive | inhibition [42]: inactive | Ratio IC50 (Homo sapiens [43]): 7 | inhibition [44]: inactive | Ratio IC50 (Homo sapiens [45]): 6 | inhibition [46]: inactive | inhibition (Homo sapiens [47]): inactive | inhibition [48]: inactive | inhibition [49]: inactive | inhibition [50]: inactive | Ratio IC50 (Homo sapiens [51]): 16 | inhibition (Homo sapiens [52]): inactive | Activity (iPSC-CM [53]): inactive | inhibition [54]: inactive | Ratio IC50 (Homo sapiens [55]): 1.1 | Activity (iPSC-CM [56]): inactive | inhibition [57]: inactive | inhibition [58]: inactive
